Laboratory results reported in publication PMC7955127, “Preclinical small molecule WEHI-7326 overcomes drug resistance and elicits response in patient-derived xenograft models of human treatment-refractory tumors” (Cell Death & Disease, 2021).

Legend:
[1] = test system: 34931 HGSOC PDX; assay: HGSOC post-chemo PDX model 34931; assay type: in vivo, NSG mice; conditions: 34931 post-taxane, cisplatin-refractory PDX; 20 mg/kg i.v. twice a week, 6 weeks
Procedure: Two to three mm ovarian tumor fragments were subcutaneously engrafted in the left flank of NSG mice and monitored by physical palpation for tumor growth and engraftment. Engrafted tumors were measured twice a week using digital Vernier calipers and maximum tumor diameter + perpendicular tumor length were digitally recorded into the Study Director software (v 3.0/4.0 StudyLog). Tumor volume was calculated automatically (tumor volume (mm^3) = 0.5236 x [larger diameter (mm) x smaller diameter (mm)^2]). Mice were randomized to treatment once their tumor volume reach 180–300 mm^3 and tumor measurements were performed twice a week up to 120 days or when the tumor volume reaches 700 mm^3.
Time to progressive disease (PD): Defined as the time (in days) from beginning of treatment to an increase in average tumor volume of >20% from the nadir (taken as the smallest average tumor volume recorded since treatment started or 200 mm^3 if nadir was <200 mm^3 as lesions smaller than this are difficult to measure with accuracy). Median time to harvest (TTH): Defined as the time (in days) from the beginning of treatment to day of harvest at 700 mm^3 and the median TTH was calculated and plotted using Kaplan-Meier curves. Based on ref. [27]. […]

[2] = Intravenous pharmacokinetics and tolerability in mice; assay type: in vivo, male Swiss Outbred mice
Procedure: Briefly, intravenous pharmacokinetics and systemic exposure of WEHI-7326 were assessed in non-fasted male Swiss Outbred mice. WEHI-7326 was administered via intravenous bolus injection (10 ml/kg dose volume) and blood samples were collected at 1, 2, 5, 15 and 30 min and 1, 2, 4, 7.5 and 24 h post-dose (n = 2 mice per time point). A maximum of two samples were obtained from each mouse, with samples being taken either via submandibular bleed (approximately 120 μl; conscious sampling) or terminal cardiac puncture (0.6 ml; while mice were anaesthetized using inhaled Isoflurane). Once collected, blood samples were centrifuged immediately, supernatant plasma was removed, and stored in −20 °C until analysis by LC-MS
Parameters were calculated with standard calculations: PlasmaCL=DoseIV/AUCIVVSS=AUMCIV/AUCIV*PlasmaCL
With plasma CL = plasma clearance, AUCIV = area under the plasma concentration vs. time profile, VSS = apparent volume of distribution at steady state, AUMCIV = area under the first moment of the plasma concentration versus time profile from time zero to infinity after IV administration.
a Measured physicochemical and solubility data for WEHI-7326. […] Microsomal-predicted EH values are included.

[3] = test system: CEM; assay: Cell growth inhibition assay, CEM; assay type: cell-based; conditions: Homo sapiens, CCRF-CEM, acute lymphoblastic leukemia, 72 h viability assay, Alamar Blue, mean of 3 ± SEM, read-out: IC50 (inhibition of cellular proliferation)
Procedure: (§1) Cells were plated at a density of between 500 to 5000 cells per well for adherent cell lines depending on doubling time, and 15,000 cells per well for lymphoblastic leukemia cell lines, in a 96-well plate in 200 μl of growth media. Plates were incubated overnight at 37 °C before adding the inhibitors. Inhibitors were serially diluted from the stock solutions in complete medium and added to the cells. Incubation in the presence of inhibitors was continued for […]. Cell viability was assessed by the AlamarBlue (Invitrogen) or CellTiterBlue/Glo (Promega) method according to manufacturer’s instructions. The curve fits and IC50 values were generated in PRISM (GraphPad, San Diego, CA).
(§2) Parental human lymphoblastic leukemia cells (CEM) and their drug resistant derivatives (dEpoB30 and dEpoB300) were cultured in the presence of increasing amounts of WEHI-7326, paclitaxel or epothilone B. Cell survival was determined as described in Experimental Procedures. Shown are mean of 3 experiments +/- SEM. Dose response curves were fitted in PRISM using non-linear regression (4 parameter logistic) to calculate IC50 values.

[4] = test system: CEM dEpoB300; assay: Cell growth inhibition assay, CEM dEpoB300; assay type: cell-based; conditions: Homo sapiens; CEM dEpoB300, leukemia (taxane resistant, β-tubulin mutation); 72 h, Alamar Blue; mean of 3 ± SEM; read-out: IC50 (inhibition of cellular proliferation)
Procedure: as §1, §2

[5] = mouse, plasma, iv, male Swiss outbred mice, i.v. 15 mg/kg

COc1ccc(CNc2nc(NCc3ccc(CN)cc3)nc(NN3CC(=O)NC3=O)n2)cc1 [WEHI-7326]
Tumor response [1]: ineffective | Adverse reactions ([2]; Swiss outbred mice, i.v., up to a dose of 30 mg/kg): no adverse reactions or compound-related side effects | clearance [2, 5]: 53 mL/min/kg | half-life [2, 5]: 6.3 h | Vd ([2]; mouse, plasma, iv, male Swiss outbred mice, i.v. 15 mg/kg, read-out: Apparent volume of distribution): 4.7 L/kg | IC50 [3]: 3.99 ± 0.04 nM | IC50 [4]: 6.51 ± 0.08 nM
